From publication PMC10764104, “Discovery of Molecular Glue Degraders via Isogenic Morphological Profiling” (ACS Chemical Biology, 2023)

Columns and labels:
[1] = target: T1, recombinant DDB1-CRBN (Homo sapiens, UniProt Q96SW2); experiment: Fluorescence polarization-based competition assay for CRBN binding; details: 200 nM CRBN-DDB1, 20 nM pomalidomide-fluorescein tracer 16, triplicates; read-out: FP_CRBN_binding: CRBN binding affinity, EC50
T1 construct: His; made in house; host or cells: High Five insect cells (baculovirus made and propagated in SF9 cells)
Description: Prior to screening the compound library in the isogenic CPA, we assessed their CRBN binding affinities using a fluorescence-polarization-based competition assay with recombinant DDB1-CRBN and the fluorescent tracer 16 (Figure S2). […] We also assessed the cytotoxicity of the CRBN binders in RKO wild-type (WT) cells to determine the appropriate treatment concentration. […]
(§1) Fluorescence Polarization‐based competition assay
(§2) Fluorescence Polarization assays were performed in 384‐well, Low Volume, Black, Round Bottom, Polystyrene Nonbinding surface Microplates (Corning, #4514). The test compounds were incubated with 200 nM CRBN‐DDB1 and 20 nM Pomalidomide‐fluorescein tracer 16 in 50 mM Tris‐HCl pH 7.5, 200 mM NaCl, 1 mM DTT, 0.02% Triton X‐ 100, and 0.1 µg/µL Bovine Serum Albumin (Sigma Aldrich, #A7030) in a total volume of 25 µL. Fluorescence polarization values were determined with a PerkinElmer Envision reader with FITC FP dual mirror and FITC FP 480 excitation filter and FITC FP 535 emission filters. Fluorescence polarization values of a 10x serial dilution (10 nM to 100 µM) of the test compounds were determined in triplicates. EC50 values were calculated with GraphPad Prism software (version 10.0.2) with a non‐linear fit function (4PL sigmoidal curve fit) adjusting the bottom constrain to the FP value of free tracer. […]

[2] = test system: RKO WT cells; experiment: CellTiter-Glo cytotoxicity of selected compounds (manual, 72 h); format: cell-based, human; details: up to 10 μM
Description: (§3) Assessment of gene expression and essentiality in RKO WT
as §1
(§4) EC50 values were calculated with GraphPad Prism […]
(§5) the FP value of free tracer. […]
(§6) instructions. […] For the screening of the whole SuFEx
(§7) Data visualization was done with seaborn
(§8) (https://seaborn.pydata.org, version 0.12.2). […]
(§9) compounds. (F) Analysis of the cytotoxicity of compounds with treatment‐centric features related to FL2‐ […]
(§10) Synthesis and in Vitro Evaluation of Diverse Heterocyclic Diphenolic Compounds as Inhibitors of DYRK1A.
(§11) (7) Zhang, J.‐H.; Chung, T. D. Y.; Oldenburg, K. R. A Simple Statistical Parameter for Use in Evaluation and Validation of High Throughput Screening Assays. SLAS Discov.

[3] = test system: HEK293T cells; experiment: as above; format: cell-based, human; details: up to 10 μM
Description: as §3, §1, §4, §5, §6, §7, §8, §9, §10, §11

[4] = test system: RKO WT, RKO CRBN KO and RKO CRBN OE; experiment: Isogenic cell painting assay, treatment-centric feature selection and CRBN-dependency prediction; format: cell-based, human
[5] = test system: RKO WT cells; details: method not stated for this control
Source text: Prior to screening the compound library in the isogenic CPA, we assessed their CRBN binding affinities using a fluorescence-polarization-based competition assay with recombinant DDB1-CRBN and the fluorescent tracer 16 (Figure S2). […] We also assessed the cytotoxicity of the CRBN binders in RKO wild-type (WT) cells to determine the appropriate treatment concentration.
as §3
Public datasets on the transcriptome and essentiality of a protein‐encoding gene for RKO (cell line ID: ACH‐000943) were retrieved from DepMap Public 23Q2 (https://depmap.org/portal/, accessed on 14 August 2023). […]
as §1
as §2, with “The test compounds were incubated with 200 nM CRBN‐DDB1 and 20 nM Pomalidomide‐fluorescein tracer 16 in 50 mM Tris‐HCl pH 7.5, 200 mM NaCl, 1 mM DTT, 0.02% Triton X‐ 100, and 0.1 µg/µL Bovine Serum Albumin (Sigma Aldrich, #A7030) in a total volume of 25 µL.” left out

[6] = target: T2, GSPT2 (Homo sapiens, UniProt Q8IYD1+Q96SW2); experiment: Western blot analysis of GSPT1 and GSPT2 degradation in RKO WT or CRBN KO cells; format: cell-based; details: RKO WT or RKO CRBN KO, 10 µM, 16 h
T2 construct: endogenous in cells; host or cells: RKO WT or RKO CRBN KO
Description: (A) Structure of FL2-14 comprising fluorosulfate scaffold FL2 (black) and tail group modification 14 (blue). (B) DMSO-normalized quantitative proteomics after 16 h of treatment with FL2-14 (10 μM) in RKO WT (n = 2). […] (C) Structural alignment of AlphaFold models of GSPT1 (AF-P15170-F1-model_v4 in gray) and GSPT2 (AF-Q8IYD1-F1-model_v4 in blue). (D) Validation of GSPT2 degradation by FL2-14. […] (E) Dose–response of FL2-14 in RKO and HEK293T cells. Cells were treated with the FL2-14 (0 to 10 μM) for 16 h. (F) Degradation of GSPT2^WT or GSPT2^G566N. […]
Analysis of targeted protein degradation of GSPT1 and GSPT2 via western blot For degradation assays 800 000 RKO WT or CRBN KO cells were seeded 1 day prior to the treatment in 6 well plates.
Then, cells were treated with 10 µM of the compounds for 16 hours if not otherwise stated. Cells were harvested, lysed for 30 min at 37°C in lysis buffer (1x PBS, 1% SDS, 2 mM MgCl2, 1x Halt Protease inhibitor cocktail, 50 Units Benzonase) and cleared for 30 min at 18 000 x g at 4°C. Protein concentration was determined with the Pierce 660 nm Protein Assay using the Ionic Detergent Compatibility Reagent (Thermo Scientific). 10 µg total proteome were subjected to western blot analysis by adding 4x Bolt™ LDS Sample Buffer (Thermo Scientific). Samples were boiled at 95°C for 5 min and subjected to gel electrophoresis with Bolt™ 4‐12% Bis‐Tris Plus Gels (Thermo Scientific) with Bolt™ MES SDS Running Buffer (Thermo Scientific). Membranes were blocked with 5% fat‐free milk in TBS‐T (20 mM Tris, 150 mM NaCl, 0.1% Tween, pH 7.6) for 1 h at room temperature and washed subsequently 3x 5 min with TBS‐
T. Afterwards, they were incubated for 1 h at room temperature with either GSPT1 antibody (Abcam ab49878, rabbit, […]
rabbit, 1:10 000), CRBN (Cell Signaling Technologies, CST71810S, rabbit, 1:1000), or GAPDH (SantaCruz sc‐47724, mouse, 1:1 000). Followed by washing 3x 5 min with TBS‐T and incubation for 1 h at room temperature with either Goat ANTI‐RABBIT IgG StarBright™ Blue 700 (Bio‐Rad, #12004162, 1:10 000) or Goat anti‐Mouse IgG (H+L) Cross‐ Adsorbed Secondary Antibody, DyLight™ 800 (Bio‐Rad, STAR117D800GA, 1:10 000) fluorophore‐conjugated

| EC50 [1] [nM] | SMILES | also measured |
| --- | --- | --- |
| 1340 | CC1(C)CN(S(=O)(=O)Oc2cccc(C3CCC(=O)NC3=O)c2)CC2(CCOC2)O1 (stereo not shown) [FL6-8] | – |
| 445 | O=C1CCC(N2C(=O)c3cccc(Nc4ccc(OS(=O)(=O)N5CC6(CNC(=O)N6)C5)cc4)c3C2=O)C(=O)N1 (stereo not shown) [FL4-9] | – |
| 1270 | O=C1CCC(N2C(=O)c3ccc(Nc4ccc(OS(=O)(=O)N5C[C@@H](F)[C@H](F)C5)cc4)cc3C2=O)C(=O)N1 (stereo partly shown) [FL2-10] | – |
| 794 | CN(C)c1ncc(CN(C)S(=O)(=O)Oc2cccc(C3CCC(=O)NC3=O)c2)cn1 (stereo not shown) [FL6-18] | – |
| 983 | CC1c2cc(F)ccc2CCN1S(=O)(=O)Oc1ccc(Nc2cccc3c2C(=O)N(C2CCC(=O)NC2=O)C3=O)cc1 (stereo not shown) [FL4-17] | – |

Continued, molecule first:

| SMILES | EC50 [1] [nM] | also measured |
| --- | --- | --- |
| O=C1CCC(N2C(=O)c3ccc(Nc4cccc(OS(=O)(=O)N5CC(CCO)C5)c4)cc3C2=O)C(=O)N1 (stereo not shown) [FL1-2] | 419 | EC50 [2]: > 10000 nM; EC50 [3]: > 10000 nM |
| CN(C)c1ncc(CN(C)S(=O)(=O)Oc2cccc(Nc3ccc4c(c3)C(=O)N(C3CCC(=O)NC3=O)C4=O)c2)cn1 (stereo not shown) [FL1-18] | 363 | EC50 [2]: > 10000 nM; EC50 [3]: > 10000 nM |
| COc1cc(N2CCN(CCOCCOCCNC(=O)CNc3cccc4c3C(=O)N(C3CCC(=O)NC3=O)C4=O)CC2)ccc1Nc1ncc(Cl)c(Nc2ccccc2S(=O)(=O)C(C)C)n1 (stereo not shown) [TL 13-12] | – | change of cell size across isogenic RKO cells ([4]; 1.5 μM, RKO CRBN OE vs RKO CRBN KO): enlarges cells drastically in a CRBN-dependent manner |
| CN1C(=O)CCC(N2C(=O)c3cccc(N)c3C2=O)C1=O (stereo not shown) [Methylated pomalidomide] | – | Number_Features: number of treatment-centric features selected [4]: 0 |
| Nc1cccc2c1C(=O)N(C1CCC(=O)NC1=O)C2=O (stereo not shown) [Pomalidomide, reference compound] | – | cytotoxicity to RKO WT [5]: not cytotoxic |
| CN(Cc1ncc(C2CC2)o1)S(=O)(=O)Oc1cccc(Nc2ccc3c(c2)C(=O)N(C2CCC(=O)NC2=O)C3=O)c1 (stereo not shown) [FL1-14] | 395 | GSPT1/2 degradation by CRBN binders with tail group modification 14 [6]: weak degradation of GSPT2 |
| O=C1CCC(N2C(=O)c3ccc(Nc4cccc(OS(=O)(=O)N5CCC(c6ccco6)C5)c4)cc3C2=O)C(=O)N1 (stereo not shown) [FL1-12] | 2780 | EC50 [2]: > 10000 nM; EC50 [3]: > 10000 nM |
| O=C1CCC(N2C(=O)c3ccc(Nc4cccc(OS(=O)(=O)N5CCOCC5)c4)cc3C2=O)C(=O)N1 (stereo not shown) [FL1-5] | 301 | – |
| O=C1CCC(N2C(=O)c3ccc(Nc4ccc(OS(=O)(=O)N5CCOCC5)cc4)cc3C2=O)C(=O)N1 (stereo not shown) [FL2-5] | 458 | – |
| C[C@@H](O)CN(C)S(=O)(=O)Oc1ccc(Nc2ccc3c(c2)C(=O)N(C2CCC(=O)NC2=O)C3=O)cc1 (stereo partly shown) [FL2-1] | 445 | – |
